One series addresses T1, Dopamine D4.2 (Homo sapiens, UniProt P21917, DEL271-302).
T1 sequence (P21917 with tags, fused parts or gaps DEL271-302): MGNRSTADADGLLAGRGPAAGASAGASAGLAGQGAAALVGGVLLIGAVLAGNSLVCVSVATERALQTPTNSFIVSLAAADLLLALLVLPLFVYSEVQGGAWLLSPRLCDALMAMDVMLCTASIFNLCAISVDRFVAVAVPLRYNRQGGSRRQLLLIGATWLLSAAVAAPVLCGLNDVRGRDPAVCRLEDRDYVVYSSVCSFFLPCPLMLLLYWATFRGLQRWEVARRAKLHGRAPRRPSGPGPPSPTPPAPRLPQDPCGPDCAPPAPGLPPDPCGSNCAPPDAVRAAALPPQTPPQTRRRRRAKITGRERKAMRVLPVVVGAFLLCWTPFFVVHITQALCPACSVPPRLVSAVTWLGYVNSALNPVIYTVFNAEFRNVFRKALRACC
Put plainly: Receptor binding, Dopamine D4.2. The procedure:
(§1) Receptor-ligand binding studies were performed as known to one skilled in the art. Compounds evaluated were LMP, the parent compound, the NDM LMP metabolite of LMP, and the sulfoxide metabolite of LMP. These studies verified receptor binding and affinity by the parent compound, as well as identified other potential receptors for the parent compound and its metabolites, and identified and verified receptors and receptor affinity for the metabolites.
(§2) Dopamine receptor affinity included binding to D1, D2, D3, D4, and D5 receptors. Serotonin receptor affinity included binding to 5-HT1A, 5-HT2A, 5-HT2B, 5-HT2, 5-HT5A, 5-HT6, and 5-HT7 receptors. Alpha adrenergic receptor affinity included binding to α1A, α1B, α1C, α2A, α2B, and α2C receptors. Muscarinic receptor affinity included binding to M1, M2, M3, M4, and M5 receptors. Binding to the histamine H1 receptor, the calcium ion channel receptor, and the sodium ion channel receptor were also evaluated. In each of the tables, the following abbreviations are used: LMP indicates the parent compound levomepromazine. NDM LMP indicates the N-desmethyl (N-desmethyl) metabolite. Sulfoxide indicates the sulfoxide metabolite. […] Ki (the inhibition constants of binding) indicate binding affinity.

The next series addresses Serotonin 5-HT5A (Homo sapiens, UniProt P47898). Put plainly: Receptor binding, Serotonin 5-HT5A. The procedure:
as §1, §2

The next series concerns the target T2, Adrenergic α1B (Homo sapiens, UniProt P35368).
T2 sequence (P35368 1-520): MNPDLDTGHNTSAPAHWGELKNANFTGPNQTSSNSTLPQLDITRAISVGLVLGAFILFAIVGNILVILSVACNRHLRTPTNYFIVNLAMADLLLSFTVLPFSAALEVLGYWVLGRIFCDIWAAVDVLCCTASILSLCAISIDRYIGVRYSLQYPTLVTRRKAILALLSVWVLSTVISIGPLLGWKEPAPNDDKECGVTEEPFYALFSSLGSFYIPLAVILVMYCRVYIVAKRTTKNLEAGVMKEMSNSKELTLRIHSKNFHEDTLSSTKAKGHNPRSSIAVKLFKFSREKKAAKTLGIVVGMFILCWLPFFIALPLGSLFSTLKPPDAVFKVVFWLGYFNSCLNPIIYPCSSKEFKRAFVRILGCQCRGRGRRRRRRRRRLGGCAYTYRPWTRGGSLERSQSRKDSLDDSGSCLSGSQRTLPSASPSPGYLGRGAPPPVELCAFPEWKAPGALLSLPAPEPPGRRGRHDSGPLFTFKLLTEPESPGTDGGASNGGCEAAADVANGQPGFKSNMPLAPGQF
Put plainly: Receptor binding, Adrenergic α1B. The procedure: as §1, §2

The next series has as its system α1 adrenergic receptors. Put plainly: Receptor affinity summary, α1 adrenergic receptors. It is filed as binding. Conditions: for binding to all α1 adrenergic receptors (in words): α1A, α1B, and α1C; for Relative Affinity: α1-Adrenergic. The procedure:
as §1, §2

Series [1] is described as follows: Serum concentrations and bioavailability after LMP administration. It is filed as in vivo.
For another series, the target named is Dopamine D1 (Homo sapiens, UniProt P21728). Put plainly: Receptor binding, Dopamine D1. The procedure:
Receptor-ligand binding studies were performed as known to one skilled in the art.
as §2, with “In each of the tables, the following abbreviations are used: LMP indicates the parent compound levomepromazine. NDM LMP indicates the N-desmethyl (N-desmethyl) metabolite.” left out

For another series, the target named is Adrenergic α2A (Homo sapiens, UniProt P08913). Put plainly: Receptor binding, Adrenergic α2A. The procedure: as §1, §2
Another series deals with dopamine receptors. Nature of the series: Receptor affinity summary, dopamine receptors. It is filed as binding. Further details: key to Relative Affinity: ≧ indicates greater or equal affinity; = indicates about the same affinity; − indicates no affinity. Conditions: for Relative Affinity: Dopamine. The procedure: as §1, §2
A further series deals with serotonin receptors. Nature of the series: Receptor affinity summary, serotonin receptors. It is filed as binding. Set-up: key to Relative Affinity: ≧ indicates greater or equal affinity; = indicates about the same affinity; − indicates no affinity. The following applies: for Relative Affinity: Serotonin. The procedure: as §1, §2
A further series is described as follows: Serum protein binding. It is filed as in vitro ADME.
Series [2] deals with Primary human hepatocytes. Nature of the series: In vitro metabolism in primary human hepatocytes. It is filed as in vitro ADME.
Series [3] has as its system human colon carcinoma cell line (CACO-2 Model). Put plainly: Intestinal absorption assay (CACO-2 Model). It is filed as in vitro ADME.
A further series has as its target Adrenergic α1A (Homo sapiens, UniProt P25100). Put plainly: Receptor binding, Adrenergic α1A. The procedure:
Receptor-ligand binding studies were performed as known to one skilled in the art. Compounds evaluated were LMP, the parent compound, the NDM LMP metabolite of LMP, and the sulfoxide metabolite of LMP. These studies verified receptor binding and affinity by the parent compound, as well as identified other potential receptors for the parent compound and its metabolites, and identified and verified receptors and receptor affinity for the metabolites. […] Binding to the histamine H1 receptor, the calcium ion channel receptor, and the sodium ion channel receptor were also evaluated. In each of the tables, the following abbreviations are used: LMP indicates the parent compound levomepromazine. NDM LMP indicates the N-desmethyl (N-desmethyl) metabolite. Sulfoxide indicates the sulfoxide metabolite. […] Ki (the inhibition constants of binding) indicate binding affinity.

Sequence of Serotonin 5-HT5A (P47898 whole entry): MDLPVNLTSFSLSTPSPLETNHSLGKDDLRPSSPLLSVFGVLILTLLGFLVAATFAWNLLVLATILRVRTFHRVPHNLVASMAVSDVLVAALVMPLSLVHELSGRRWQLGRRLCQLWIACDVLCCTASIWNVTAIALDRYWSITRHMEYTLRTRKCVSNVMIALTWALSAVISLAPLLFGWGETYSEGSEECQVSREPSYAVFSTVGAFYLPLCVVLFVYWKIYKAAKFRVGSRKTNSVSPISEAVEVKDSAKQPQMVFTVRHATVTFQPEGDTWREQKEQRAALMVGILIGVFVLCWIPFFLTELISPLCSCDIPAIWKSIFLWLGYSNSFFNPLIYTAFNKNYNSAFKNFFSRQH
Sequence of Dopamine D1 (P21728 whole entry): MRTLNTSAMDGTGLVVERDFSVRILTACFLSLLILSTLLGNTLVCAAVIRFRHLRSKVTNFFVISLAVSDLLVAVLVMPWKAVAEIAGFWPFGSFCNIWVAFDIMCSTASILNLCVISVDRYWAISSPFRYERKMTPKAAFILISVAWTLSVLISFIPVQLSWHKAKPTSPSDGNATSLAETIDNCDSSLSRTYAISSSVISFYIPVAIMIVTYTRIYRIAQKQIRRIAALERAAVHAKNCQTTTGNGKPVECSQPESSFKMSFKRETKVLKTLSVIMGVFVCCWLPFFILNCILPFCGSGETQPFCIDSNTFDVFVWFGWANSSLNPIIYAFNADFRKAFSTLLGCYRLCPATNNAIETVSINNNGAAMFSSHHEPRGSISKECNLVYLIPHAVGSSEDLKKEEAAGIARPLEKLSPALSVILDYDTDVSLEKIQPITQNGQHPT
Sequence of Adrenergic α2A (P08913 whole entry): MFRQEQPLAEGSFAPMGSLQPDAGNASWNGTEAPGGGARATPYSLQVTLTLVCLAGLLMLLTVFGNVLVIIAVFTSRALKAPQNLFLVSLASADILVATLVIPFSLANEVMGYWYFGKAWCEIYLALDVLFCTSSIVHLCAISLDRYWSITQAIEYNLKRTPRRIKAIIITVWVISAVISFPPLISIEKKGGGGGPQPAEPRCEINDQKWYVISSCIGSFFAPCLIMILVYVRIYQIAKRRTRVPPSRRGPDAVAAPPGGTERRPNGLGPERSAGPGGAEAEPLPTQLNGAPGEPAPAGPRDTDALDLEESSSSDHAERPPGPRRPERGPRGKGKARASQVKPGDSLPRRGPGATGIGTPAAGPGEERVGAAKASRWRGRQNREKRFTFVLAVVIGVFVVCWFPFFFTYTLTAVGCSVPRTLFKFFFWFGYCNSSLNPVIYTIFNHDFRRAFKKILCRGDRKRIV
Sequence of Adrenergic α1A (P25100 whole entry): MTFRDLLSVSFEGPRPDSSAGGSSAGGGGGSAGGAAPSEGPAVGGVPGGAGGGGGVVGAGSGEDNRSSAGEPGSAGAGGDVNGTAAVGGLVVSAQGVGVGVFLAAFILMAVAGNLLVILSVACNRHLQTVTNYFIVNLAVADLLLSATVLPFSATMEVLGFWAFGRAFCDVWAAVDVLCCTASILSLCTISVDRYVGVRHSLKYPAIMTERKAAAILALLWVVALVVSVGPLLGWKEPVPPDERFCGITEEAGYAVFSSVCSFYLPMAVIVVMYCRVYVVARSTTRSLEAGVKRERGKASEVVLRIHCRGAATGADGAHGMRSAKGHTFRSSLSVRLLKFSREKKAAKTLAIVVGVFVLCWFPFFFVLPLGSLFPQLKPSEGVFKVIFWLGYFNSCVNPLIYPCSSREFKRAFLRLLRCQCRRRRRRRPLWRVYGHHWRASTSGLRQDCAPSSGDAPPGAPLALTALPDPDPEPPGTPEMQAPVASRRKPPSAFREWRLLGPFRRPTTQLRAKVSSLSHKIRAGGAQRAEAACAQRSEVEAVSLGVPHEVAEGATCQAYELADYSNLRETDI

Regarding `COc1ccc2c(c1)N(C[C@H](C)CN(C)C)c1ccccc1S2` [LMP, Levomepromazine], the Ki on Dopamine D4.2 is 769 nM; at Serotonin 5-HT5A, 136 nM; at Adrenergic α1B it was 2 nM. Moreover, the “binding to all α1 adrenergic receptors (in words)” value in the series on α1 adrenergic receptors was “high binding”. The bioavailability in series [1] (in vivo, 25 mg oral formulation compared to 25 mg intravenous dose, read-out: absolute bioavailability) was roughly 20%.
With `CNCC(C)CN1c2ccccc2Sc2ccc(OC)cc21` (stereo not drawn) [NDM LMP, R(+) 2-methoxy-10-2-methyl-3-monomethylaminopropyl phenothiazine], on Dopamine D1, the affinity corresponds to a Ki of 99 nM. The molecule further displayed a Ki on Dopamine D4.2 of 3110 nM. This molecule displayed a Ki on Serotonin 5-HT5A of 152 nM. This molecule showed a Ki on Adrenergic α1B of 2 nM. For the same molecule, the Ki on Adrenergic α2A amounted to 239 nM. Moreover, the “Relative Affinity” value in the series with dopamine receptors is recorded as “LMP = NDM LMP”. The “Relative Affinity” value in the series on serotonin receptors was “LMP = NDM LMP”. For the same molecule, in the series on α1 adrenergic receptors, the “Relative Affinity” value is recorded as “LMP = NDM LMP ≧ sulfoxide” and the “binding to all α1 adrenergic receptors (in words)” value is on record as “high binding”. The same molecule returned a fraction unbound in the series “Serum protein binding” (serum) of 0.01. In addition, in [2], the “Phase I biotransformation” value is on record as “metabolized to only one putative primary amine metabolite”, the “Phase II biotransformation (conjugation)” value is on record as “did not appear to undergo any Phase II biotransformation”, the “metabolic stability relative to LMP” value is reported as “much more metabolically stable than its LMP parent compound” and the sulfoxide metabolite formation entry is recorded as “no detectable sulfoxide metabolites were formed”. Also, in [3], the “apical to basolateral permeability coefficient relative to parent LMP” value is reported as 1.5 fold, the “gut wall (enterocyte) metabolism relative to parent LMP” value is “occurs to a lower extent” and the “percent recovered through the system relative to parent LMP” value is 1.5-2.0 fold.
`COc1ccc2c(c1)N(C[C@H](C)CN(C)C)c1ccccc1[S+]2[O-]` (stereo partly drawn) [Sulfoxide, levomepromazine sulfoxide]: the Ki at Dopamine D1 was greater than 10000 nM; at Dopamine D4.2 it was greater than 10000 nM; at Serotonin 5-HT5A it was greater than 10000 nM; on Adrenergic α1A, 141 nM; at Adrenergic α1B, 80 nM; at Adrenergic α2A, greater than 10000 nM. Besides, the “binding affinity to dopamine receptors (in words)” value in the series on dopamine receptors is given as “essentially no binding affinity”. The “Relative Affinity” value in the series with dopamine receptors is given as “−”; in the series on serotonin receptors, “−”; with α1 adrenergic receptors it was “LMP = NDM LMP ≧ sulfoxide”. Besides, the “binding affinity to serotonin receptors (in words)” value with serotonin receptors is on record as “essentially no binding affinity”. For the same molecule, in the series on α1 adrenergic receptors, the “binding to all α1 adrenergic receptors (in words)” value is “high binding”. The “free fraction (less protein binding), relative” value in “Serum protein binding” (relative to LMP or NDM LMP) amounted to 20 fold. In series [1] (25 mg LMP intramuscularly), the “sulfoxide detection after LMP” value is recorded as “no sulfoxide was detected”. The “sulfoxide concentrations relative to parent compound” value in [1] (LMP 50 mg to 350 mg orally daily for one week) came out at 2.5 times. For the same molecule, in series [1] (LMP intravenously, bioavailability study), the “sulfoxide formation after LMP” value was “sulfoxide formation was detected although to a much lower extent compared to the oral formulation”. The “total serum concentrations relative to parent LMP or NDM LMP” value in [1] (in vivo) was 1.5-3.0 fold.

The term Ki denotes the equilibrium dissociation constant of an inhibitor or competing ligand from its target. What is called bioavailability is the share of a dose that reaches the circulation, judged against a reference dose that is usually intravenous. The fraction unbound is free concentration divided by total concentration.

For the origin of these results see patent US20050080076A1 (Xanodyne Pharmacal, Inc., priority 2003, published 2005).
